The subject of this assay is peripheral white blood cells of patients. The assay can be described thus: Real time RT-PCR of gene transcription in patients' peripheral white cells in vivo. Also noted: species or system human. Here is the method:
FIG. 8. Induction of MT3 (A) and AREG (B) transcription in vivo in patients with solid tumor who received treatment with MGCD0103 for one week (three doses per week). At day 8 (72 h after the third dose), peripheral white blood cells were isolated and RNA extracted and analyzed by qRT-PCR
FIG. 12. Induction of transcription of three tumor suppressor genes, BTG1, TNFSF9 and p21 in peripheral white cells from Patient A in vivo as determined by real time RT-PCR. Note that both BTG1 and TNFSF9 were identified in FIG. 11 using microarray expression analysis and their expression is confirmed in vivo by real time RT-PCR.
FIG. 13. Induction of transcription of three tumor suppressor genes, BTG1, TNFSF9 and p21 in peripheral white cells from a MDS patient with clinical response (Patient E) and a MDS patient without response (Patient F) in vivo as determined by real time RT-PCR. Blood samples were drawn 48 hr post the 2nd dose in cycle 1.
Whole blood from either consenting healthy volunteers or consenting patients was centrifuged at 2500 rpm for 10 minutes at ambient temperature in a Sorvall RT-7 centrifuge (Mandel Scientific Co., Guelph, Ontario). Plasma was removed and buffy coat was collected. Five volumes of Erythrocyte Lysis Buffer (EL) (Qiagen Canada Inc., Mississauga, Ontario) were added into buffy coat. Buffy coat was incubated on ice for 20 minutes before it was centrifuged at 400 g for 10 minutes at 4° C. Supernatant was removed and buffy coat was washed twice with EL buffer and re-centrifuged. Buffy coat was resuspended in RPMI media and cells were counted with trypan blue exclusion. To isolate PBMCs, buffy coat cells were centrifuged over Lymphoprep (Axis-Shield, 1114544), and any remaining erythrocytes in the sample were lysed by treatment with EL lysis buffer (Qiagen, 79217). The cell pellets are washed and then re-suspended in RPMI containing 10% FBS.
Quantitative PCR with SYBR Green I detection with Mastercycler® ep realplex (Eppendorf) was performed using LightCycler® 480 SYBR Green I Master (Roche Diagnostics). SYBR Green I assays were performed with 600 nM primers. All other reaction conditions were as described by the manufacturer. Amplification conditions were 5 minutes of initial denaturation at 95° C., followed by 40 cycles of each 15 seconds at 95° C., 15 seconds at 63.4° C., 20 seconds at 68° C., a melting curve from 60° C. to 95° C. was recorded. Quantification was performed using Pfaffl method, a relative quantification method in real-time PCR (Nucleic Acids Research 2001 29:2002-2007). Primers were synthesized by Invitrogen (Invitrogen-Canada, Burlington, Ont.).
Human patients with either solid tumors or leukemia/MDS diseases were enrolled in phase I studies with consensus forms. […]
A general note: Quantitative PCR measures a nucleic acid by following its amplification.

The structures appear in SMILES notation.

1 compound from US20070292351A1, “Assay for efficacy of histone deacetylase inhibitors” (Methylgene, Inc., priority 2006, published 2007) can be followed below.

Regarding `Nc1ccccc1NC(=O)c1ccc(CNc2nccc(-c3cccnc3)n2)cc1` [MGCD0103], the “Induction of transcription of BTG1, TNFSF9 and p21” value is “Induction” (MDS patient with clinical response (Patient E), 48 hr post 2nd dose in cycle 1 (FIG. 13)) and “Induction” (peripheral white cells, AML Patient A, real time RT-PCR (FIG. 12)). Also, the “induction of MT3 transcription in vivo” value (patients with solid tumors, one week (three doses per week), day 8, qRT-PCR (FIG. 8A)) is listed as “induction”. The “induction of AREG transcription in vivo” value (patients with solid tumors, one week (three doses per week), day 8, qRT-PCR (FIG. 8B)) was “induction”.
